Measured values from PMC3879630 (Molecular & Cellular Proteomics : MCP, 2013).
Numbering of substitutions follows the chain as printed.

Assays:
Experiment in all cases: biotin-switch assay, anti-GST western blot
Type in all cases: binding
RNF11 [1] = target: T1, RNF11 (Homo sapiens, UniProt Q9Y3C5, C4S); settings: covalent (S-nitrosylation of cysteine); 100 μM GSNO
T1 sequence (Q9Y3C5 1-154 C4S): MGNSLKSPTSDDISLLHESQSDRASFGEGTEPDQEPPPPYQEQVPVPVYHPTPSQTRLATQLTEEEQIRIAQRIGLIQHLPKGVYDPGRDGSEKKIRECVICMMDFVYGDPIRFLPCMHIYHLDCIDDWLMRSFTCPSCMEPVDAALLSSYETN

RNF141 [2] = target: T2, RNF141 (Homo sapiens, UniProt Q8WVD5, C82S); settings: covalent (S-nitrosylation of cysteine); 100 μM GSNO
T2 sequence (Q8WVD5 1-230 C82S): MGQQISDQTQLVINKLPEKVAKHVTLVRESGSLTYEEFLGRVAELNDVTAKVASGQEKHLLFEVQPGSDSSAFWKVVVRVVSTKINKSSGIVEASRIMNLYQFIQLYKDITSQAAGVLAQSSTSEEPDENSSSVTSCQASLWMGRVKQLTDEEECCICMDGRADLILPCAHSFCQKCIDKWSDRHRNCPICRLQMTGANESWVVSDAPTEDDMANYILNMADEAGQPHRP

RNF141 [3] = target: T3, RNF141 (Homo sapiens, UniProt Q8WVD5); settings: covalent (S-nitrosylation of cysteine); 100 μM GSNO
T3 sequence (Q8WVD5 1-230): T2 sequence (Q8WVD5 1-230 C82S) with S82C

RNF41 [4] = target: T4, RNF41 (Homo sapiens, UniProt Q9H4P4, C134S); settings: covalent (S-nitrosylation of cysteine); 100 μM GSNO
T4 sequence (Q9H4P4 1-317 C134S): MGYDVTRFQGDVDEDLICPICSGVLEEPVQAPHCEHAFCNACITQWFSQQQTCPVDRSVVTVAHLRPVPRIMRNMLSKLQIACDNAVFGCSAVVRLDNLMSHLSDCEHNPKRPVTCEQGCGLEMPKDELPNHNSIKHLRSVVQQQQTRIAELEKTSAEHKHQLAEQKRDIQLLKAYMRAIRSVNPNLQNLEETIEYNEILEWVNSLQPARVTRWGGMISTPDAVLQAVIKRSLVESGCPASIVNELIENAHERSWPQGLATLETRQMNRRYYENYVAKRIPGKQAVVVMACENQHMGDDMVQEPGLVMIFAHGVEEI

RNF11 [5] = target: T5, RNF11 (Homo sapiens, UniProt Q9Y3C5); settings: covalent (S-nitrosylation, Cys4); 100 μM GSNO, 1 h; GSH control
T5 sequence (Q9Y3C5 1-154): T1 sequence (Q9Y3C5 1-154 C4S) with S4C

RNF41 [6] = target: T6, RNF41 (Homo sapiens, UniProt Q9H4P4, C238S); settings: covalent (S-nitrosylation of cysteine); 100 μM GSNO
T6 sequence (Q9H4P4 1-317 C238S): T4 sequence (Q9H4P4 1-317 C134S) with S134C, C238S

RNF41 [7] = target: T7, RNF41 (Homo sapiens, UniProt Q9H4P4, C106S); settings: covalent (S-nitrosylation of cysteine); 100 μM GSNO
T7 sequence (Q9H4P4 1-317 C106S): T4 sequence (Q9H4P4 1-317 C134S) with C106S, S134C

Question: `N[C@@H](CCC(=O)N[C@@H](CSN=O)C(=O)NCC(=O)O)C(=O)O` [GSNO] was tested. Which “S-nitrosylation (BSM)” value (RNF11 [1]) did it give?
Answer: The C4S RNF11 protein is not S-nitrosylated

Question: And the “S-nitrosylation (BSM)” value (RNF141 [2])?
Answer: The C82S and C175S RNF141 proteins both show reduced S-nitrosylation compared with WT RNF141

Question: What about the “S-nitrosylation (BSM)” value (RNF141 [3]) of the same compound?
Answer: The C82S and C175S RNF141 proteins both show reduced S-nitrosylation compared with WT RNF141

Question: What about the “S-nitrosylation (BSM)” value (RNF41 [4]) of the same compound?
Answer: C134S and C238S mutants have minimal effect on the S-nitrosylation of RNF41

Question: What about the “biotin-switch assay, anti-GST western blot” value (RNF11 [5]) of the same compound?
Answer: Cys4 is S-nitrosylated in RNF11

Question: And the “S-nitrosylation (BSM)” value (RNF41 [6])?
Answer: C134S and C238S mutants have minimal effect on the S-nitrosylation of RNF41

Question: What about the “S-nitrosylation (BSM)” value (RNF41 [7]) of the same compound?
Answer: The C106S RNF41 protein S-nitrosylation signal is dramatically reduced compared with WT RNF41
